Measured values as given in patent US8765166B2, “Drug delivery devices for delivery of ocular therapeutic agents” (Aerie Pharmaceuticals, Inc., priority 2010, dated 2014).
In brackets after ≈: the same amount, converted by molar mass. Structures can show the parent of a compound that is named as a salt.

Columns and labels:
physchem = settings: for solubility: aqueous buffer
Text: The active agent may be any active agent suitable to treat the desired condition. […] Examples include, but are not limited to, acetazolamide, dorzolamide HCl, timolol maleate, and ethacrynic acid sodium salt.

[1] = topical ocular use; cited from earlier work

| solubility class (physchem) | solubility (physchem) | Molecule | further results |
| --- | --- | --- | --- |
| low solubility | < 300 µg/mL | C[C@@H]1C[C@H]2[C@@H]3CCC4=CC(=O)C=C[C@]4(C)[C@@]3(F)[C@@H](O)C[C@]2(C)[C@@]1(O)C(=O)CO [dexamethasone] | – |
| high solubility | > 1000 µg/mL | CC(C)(C)NC[C@H](O)COc1nsnc1N1CCOCC1 [timolol maleate] | – |
| moderate solubility | – | O=C(O)CCCCCC[C@@H]1[C@@H](CC[C@@H](O)c2cc3ccccc3s2)[C@H](O)C[C@@H]1O [AR-102 free acid, 7-((1R,2R,3R,5S)-2-((R)-3-(benzo[b]thiophen-2-yl)-3-hydroxypropyl)-3,5-dihydroxycyclopentyl)heptanoic acid] | – |
| high solubility | – | C[C@@H]1C[C@H]2[C@@H]3CCC4=CC(=O)C=C[C@]4(C)[C@@]3(F)[C@@H](O)C[C@]2(C)[C@@]1(O)C(=O)COP(=O)(O)O [dexamethasone sodium phosphate] | – |
| – | < 300 µg/mL | CC[C@H](C)C(=O)O[C@H]1C[C@@H](C)C=C2C=C[C@H](C)[C@H](CC[C@@H]3C[C@@H](O)CC(=O)O3)[C@H]21 [lovastatin] | – |
| – | – | brimonidine tartrate | solubility class (physchem; PBS at pH=7.2-7.4, listed as brimonidine D-tartrate salt): high solubility; solubility in water (physchem; in water at pH 7.7): 600 µg/mL |
| high solubility | > 1000 µg/mL | C=C(CC)C(=O)c1ccc(OCC(=O)O)c(Cl)c1Cl [ethacrynic acid sodium salt] | – |
| – | – | Brc1c(NC2=NCCN2)ccc2nccnc12 [brimonidine free base] | solubility in PBS (physchem): 360 µg/mL (≈ 1230 µM) |
| high solubility | > 1000 µg/mL | CCN[C@H]1C[C@H](C)S(=O)(=O)c2sc(S(N)(=O)=O)cc21 [dorzolamide HCl] | – |
| – | – | O=C(O)CCC/C=C\C[C@@H]1[C@@H](CC[C@@H](O)CCc2ccccc2)[C@H](O)C[C@@H]1O [latanoprost free acid] | solubility in PBS (physchem): 800 µg/mL (≈ 2050 µM) |
| low solubility | < 300 µg/mL | CC(C)OC(=O)CCC/C=C\C[C@@H]1[C@@H](/C=C/[C@@H](O)COc2cccc(C(F)(F)F)c2)[C@H](O)C[C@@H]1O [travoprost isopropyl ester] | – |
| – | > 1000 µg/mL | CC(=O)Nc1nnc(S(N)(=O)=O)s1 [acetazolamide] | – |
| low solubility | – | CCNC(=O)CCC/C=C\C[C@@H]1[C@@H](/C=C/[C@@H](O)CCc2ccccc2)[C@H](O)C[C@@H]1O [bimatoprost] | – |
| Moderately Soluble | – | C[C@@H](N)c1ccc(C(=O)Nc2ccnc3[nH]ccc23)cc1 [Y-39983 Free Base] | – |
| low solubility | < 300 µg/mL | CC(C)OC(=O)CCC/C=C\C[C@@H]1[C@@H](CC[C@@H](O)CCc2ccccc2)[C@H](O)C[C@@H]1O [latanoprost isopropyl ester] | topical effective concentration [1]: 0.05 milligrams/mL |
